Results as given in ChEMBL document CHEMBL4145670, “A Bioactive Resveratrol Trimer from the Stem Bark of the Sri Lankan Endemic Plant Vateria copallifera” (J Nat Prod, 2018).
Calls of active or inactive are those of the source. The rule behind the calls is not given here.

Assays:
[1] = tested on: PC-12; assay: cells; conditions: Rattus norvegicus, PC-12, 3 h, read-out: Activity
[2] = tested on: HepG2; assay: cells; conditions: Homo sapiens, HepG2, 48 h, read-out: GI
Description: Growth inhibition of human HepG2 cells at 147.2 uM after 48 hrs by methylene blue staining based assay relative to control

[3] = organism: Homo sapiens; conditions: 147.2 uM
Description: Inhibition of alpha-chymotrypsin (unknown origin) at 147.2 uM using N-succinyl-L-phenylalanine-p-nitroanilide as substrate pretreated for 25 mins followed by substrate addition relative to control

[4] = molecular target: Cholinesterase (Homo sapiens) (UniProt P06276); conditions: 10 ug/ml
Sequence of Cholinesterase (Homo sapiens) (P06276 whole entry): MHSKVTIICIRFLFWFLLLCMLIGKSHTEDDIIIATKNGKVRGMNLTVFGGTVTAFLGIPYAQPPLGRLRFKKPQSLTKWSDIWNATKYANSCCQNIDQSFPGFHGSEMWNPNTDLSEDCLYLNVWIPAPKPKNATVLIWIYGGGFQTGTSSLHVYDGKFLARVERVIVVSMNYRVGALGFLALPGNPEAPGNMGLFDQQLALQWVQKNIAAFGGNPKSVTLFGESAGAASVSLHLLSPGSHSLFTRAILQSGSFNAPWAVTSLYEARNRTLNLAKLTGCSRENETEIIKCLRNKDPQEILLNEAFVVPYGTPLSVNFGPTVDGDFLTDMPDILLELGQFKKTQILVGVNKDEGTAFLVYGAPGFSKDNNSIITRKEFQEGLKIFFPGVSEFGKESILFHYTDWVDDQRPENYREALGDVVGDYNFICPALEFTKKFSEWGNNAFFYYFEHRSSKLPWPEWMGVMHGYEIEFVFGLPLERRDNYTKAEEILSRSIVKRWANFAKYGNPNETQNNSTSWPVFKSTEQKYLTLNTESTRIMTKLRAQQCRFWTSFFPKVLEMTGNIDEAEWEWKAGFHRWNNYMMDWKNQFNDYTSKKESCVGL
Description: Inhibition of BChE (unknown origin) at 10 ug/ml using butyrylthiocholine iodide as substrate pretreated for 15 mins followed by substrate addition and measured by DTNB reagent based assay relative to control

[5] = tested on: HCT-116; assay: cells; conditions: Homo sapiens, HCT-116, 48 h, read-out: GI
Description: Growth inhibition of human HCT116 cells at 147.2 uM after 48 hrs by methylene blue staining based assay relative to control

[6] = organism: Homo sapiens; conditions: 44.1 uM
Description: Inhibition of elastase (unknown origin) at 44.1 uM using N-succinyl-Ala-Ala-Ala-p-nitroanilide as substrate pretreated for 25 mins followed by substrate addition relative to control

[7] = tested on: HeLa; assay: cells; conditions: Homo sapiens, 48 h, read-out: GI
Description: Growth inhibition of human HeLa cells at 147.2 uM after 48 hrs by methylene blue staining based assay relative to control

[8] = organism: Homo sapiens; conditions: 1.5 uM
Description: Inhibition of GST (unknown origin) at 1.5 uM using CDNB as substrate relative to control

[9] = tested on: MCF7; assay: cells; conditions: Homo sapiens, MCF7, 48 h, read-out: GI
Description: Growth inhibition of human MCF7 cells at 147.2 uM after 48 hrs by methylene blue staining based assay relative to control

[10] = tested on: SK-MEL-5; assay: cells; conditions: Homo sapiens, SK-MEL-5, 48 h, read-out: GI
Description: Growth inhibition of human SK-MEL-5 cells at 147.2 uM after 48 hrs by methylene blue staining based assay relative to control

[11] = molecular target: Cholinesterase (Homo sapiens) (UniProt P06276); conditions: 14.7 uM
Description: Inhibition of BChE (unknown origin) at 14.7 uM using butyrylthiocholine iodide as substrate pretreated for 15 mins followed by substrate addition and measured by DTNB reagent based assay

Q: For `Oc1ccc(-c2oc3cc(O)c4c5c3c2-c2cc(O)cc(O)c2[C@H](c2ccc(O)cc2)[C@@H]5[C@H](c2ccc(O)cc2)[C@@H]4c2cc(O)cc(O)c2)cc1`, which viability at 1.5 µM [1] is on record?
A: 88.3%

Q: What about the inhibition of growth at 147.2 µM [2] of the same compound?
A: < 50%

Q: And the inhibition [3]?
A: 55.7%

Q: What about the inhibition [4] of the same compound?
A: 19.7%

Q: And the inhibition of growth at 147.2 µM [5]?
A: < 50%

Q: And the inhibition [6]?
A: 10.2%

Q: And the inhibition of growth at 147.2 µM [7]?
A: < 50%

Q: And the inhibition [8]?
A: 34.7%

Q: And the inhibition of growth at 147.2 µM [9]?
A: < 50%

Q: What about the inhibition of growth at 147.2 µM [10] of the same compound?
A: < 50%

Q: And the inhibition [11]?
A: inactive
